Earlier results on five compounds are cited in US20070231312A1, “NUTRITIONAL SUPPLEMENT FOR PREGNANT FEMALES” (priority 2006, published 2007).

The structures appear in SMILES notation.

The test system of data set [1] is glutathione peroxidase. As to conditions: placental homogenates from late human gestation.
The test system of data set [2] is oxidative mitochondrial damage. As to conditions: in vitro studies, ischemia reperfusion model.
Data set [3] concerns primigravida women. As to conditions: 2 mg. twice daily beginning at 16-20 wks; placebo 17.7%, P<0.05.
The test system of data set [4] is women at high risk for developing preeclampsia. As to conditions: treatment group; 1000 μg. per day for 6 to 8 weeks during late gestation; placebo 22.7%.
Data set [5] relates to pregnant rats.
The conditions of data set [6]: supplementation in pregnancy.

In the case of `COc1ccc2[nH]cc(CCNC(C)=O)c2c1` [melatonin, Melatonin], in data set [1], the glutathione peroxidase activity result is reported as “reduction”. Also, the “protection against oxidative mitochondrial damage” value in data set [2] was “protects against oxidative mitochondrial damage”.
On to `CC(C)=CCC/C(C)=C/C=C/C(C)=C/C=C/C(C)=C/C=C/C=C(C)/C=C/C=C(C)/C=C/C=C(\C)CCC=C(C)C` [lycopene, Lycopene], for which, in data set [3], the women developing preeclampsia is recorded as 8.6%.
As to `[Se]` [Selenium], the “incidence of pregnancy-induced hypertension” value in data set [4] was 7.7%.
Regarding `COC(=O)[C@@H](N)CCCNC(=N)N[N+](=O)[O-]` [L-NAME, N^G-nitro-L-arginine methyl ester], in data set [5], the “effects on blood pressure, fetal growth and proteinuria” value was “elevated blood pressure, fetal retarded growth and proteinuria”.
`CC1=C(/C=C/C(C)=C/C=C/C(C)=C/C=C/C=C(C)/C=C/C=C(C)/C=C/C2=C(C)CCCC2(C)C)C(C)(C)CCC1` [beta-carotene]: the “level in maternal serum” value in data set [6] is listed as “increase”.
